In ChEMBL document CHEMBL5442175, “EUbOPEN Chemogenomics Library - PDSP Secondary Binding” (2024):
Where a name gives a salt, the structure may show the parent alone.

Key:
[1] = molecular target: 5-hydroxytryptamine receptor 6 (Homo sapiens, UniProt P50406); test: (§1) PDSP Secondary Binding target: HTR6 - Compounds are tested at 10 uM concentration, plate are incubated at room temperature in the dark for 90 minutes. Reaction are stopped by vacuum filtration onto 0.3% polyethyleneimine soaked filter mats using Filtermate harvester. Scintillation cocktail is then melted onto microwave-dried filters on a hot plate and the radio activity is counted in Microbia counter.
[2] = molecular target: Sodium-dependent noradrenaline transporter (Homo sapiens, UniProt P23975); test: as §1, with “SLC6A2” for “HTR6”
[3] = molecular target: Sigma intracellular receptor 2 (Homo sapiens, UniProt Q5BJF2); test: as §1, with “TMEM97” for “HTR6”
D(4) dopamine receptor = molecular target: T1, D(4) dopamine receptor (Homo sapiens, UniProt P21917); test: as §1, with “DRD4” for “HTR6”
T1 sequence (P21917 whole entry): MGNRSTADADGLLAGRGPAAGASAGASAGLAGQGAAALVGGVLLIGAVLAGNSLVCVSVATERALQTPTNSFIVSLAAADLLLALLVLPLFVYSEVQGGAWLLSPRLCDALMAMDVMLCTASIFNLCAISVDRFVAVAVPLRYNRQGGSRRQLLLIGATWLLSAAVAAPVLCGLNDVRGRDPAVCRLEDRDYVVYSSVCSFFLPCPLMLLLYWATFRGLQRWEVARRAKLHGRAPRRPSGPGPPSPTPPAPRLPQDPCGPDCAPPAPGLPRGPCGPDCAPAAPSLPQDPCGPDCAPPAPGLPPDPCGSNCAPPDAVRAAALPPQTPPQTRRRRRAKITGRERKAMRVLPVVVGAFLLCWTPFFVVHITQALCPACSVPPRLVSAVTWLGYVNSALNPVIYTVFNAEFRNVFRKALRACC

[4] = molecular target: T2, Muscarinic acetylcholine receptor M4 (Homo sapiens, UniProt P08173); test: as §1, with “CHRM4” for “HTR6”
T2 sequence (P08173 whole entry): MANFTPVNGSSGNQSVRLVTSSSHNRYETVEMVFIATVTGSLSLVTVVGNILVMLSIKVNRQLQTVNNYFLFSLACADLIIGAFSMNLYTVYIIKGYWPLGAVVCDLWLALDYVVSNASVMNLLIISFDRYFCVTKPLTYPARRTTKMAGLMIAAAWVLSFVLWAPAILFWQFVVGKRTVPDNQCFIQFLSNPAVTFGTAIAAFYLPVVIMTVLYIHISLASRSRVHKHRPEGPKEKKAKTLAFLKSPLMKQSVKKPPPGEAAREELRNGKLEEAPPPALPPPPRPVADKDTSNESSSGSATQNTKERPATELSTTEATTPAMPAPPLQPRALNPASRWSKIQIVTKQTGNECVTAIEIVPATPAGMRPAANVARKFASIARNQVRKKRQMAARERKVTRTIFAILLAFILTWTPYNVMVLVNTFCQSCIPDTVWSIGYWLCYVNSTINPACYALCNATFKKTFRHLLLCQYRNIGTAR

[5] = molecular target: 5-hydroxytryptamine receptor 5A (Homo sapiens, UniProt P47898); test: as §1, with “HTR5A” for “HTR6”
[6] = molecular target: T3, 5-hydroxytryptamine receptor 2C (Homo sapiens, UniProt P28335); test: as §1, with “HTR2C” for “HTR6”
T3 sequence (P28335 whole entry): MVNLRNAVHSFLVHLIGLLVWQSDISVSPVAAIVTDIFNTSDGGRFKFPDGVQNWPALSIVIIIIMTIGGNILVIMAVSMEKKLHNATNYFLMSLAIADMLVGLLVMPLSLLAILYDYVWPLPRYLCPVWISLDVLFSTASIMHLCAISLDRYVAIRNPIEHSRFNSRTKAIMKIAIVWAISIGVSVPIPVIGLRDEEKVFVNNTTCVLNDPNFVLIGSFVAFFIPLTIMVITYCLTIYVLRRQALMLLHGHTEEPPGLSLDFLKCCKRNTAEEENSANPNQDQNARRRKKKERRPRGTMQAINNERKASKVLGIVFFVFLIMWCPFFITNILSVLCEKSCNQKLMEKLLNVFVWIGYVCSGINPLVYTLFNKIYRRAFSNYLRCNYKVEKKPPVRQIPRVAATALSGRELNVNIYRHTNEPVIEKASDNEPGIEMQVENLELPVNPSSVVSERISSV

[7] = molecular target: 5-hydroxytryptamine receptor 1D (Homo sapiens, UniProt P28221); test: as §1, with “HTR1D” for “HTR6”
Translocator protein = Translocator protein (Homo sapiens, UniProt P30536); test: as §1, with “TSPO” for “HTR6”
Mu-type opioid receptor = Mu-type opioid receptor (Homo sapiens, UniProt P35372); test: as §1, with “OPRM1” for “HTR6”
[8] = molecular target: T4, 5-hydroxytryptamine receptor 3A (Homo sapiens, UniProt P46098); test: as §1, with “HTR3A” for “HTR6”
T4 sequence (P46098 whole entry): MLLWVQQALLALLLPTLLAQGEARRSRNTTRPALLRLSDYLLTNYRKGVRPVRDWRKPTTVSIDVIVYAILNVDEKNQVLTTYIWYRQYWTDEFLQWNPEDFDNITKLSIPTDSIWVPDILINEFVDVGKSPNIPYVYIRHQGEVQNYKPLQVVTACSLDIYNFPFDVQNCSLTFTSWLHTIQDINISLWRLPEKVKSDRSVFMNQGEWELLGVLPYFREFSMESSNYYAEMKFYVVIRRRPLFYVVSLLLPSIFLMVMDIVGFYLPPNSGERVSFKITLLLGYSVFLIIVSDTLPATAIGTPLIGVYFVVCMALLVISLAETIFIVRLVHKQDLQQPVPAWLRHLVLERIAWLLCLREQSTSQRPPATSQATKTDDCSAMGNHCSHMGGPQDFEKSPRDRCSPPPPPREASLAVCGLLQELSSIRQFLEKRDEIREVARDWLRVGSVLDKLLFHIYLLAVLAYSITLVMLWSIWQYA

[9] = molecular target: Sigma non-opioid intracellular receptor 1 (Homo sapiens, UniProt Q99720); test: as §1, with “SIGMAR1” for “HTR6”
[10] = molecular target: 5-hydroxytryptamine receptor 7 (Homo sapiens, UniProt P34969); test: as §1, with “HTR7” for “HTR6”
Histamine H1 receptor = Histamine H1 receptor (Homo sapiens, UniProt P35367); test: as §1, with “HRH1” for “HTR6”
[11] = molecular target: T5, Muscarinic acetylcholine receptor M1 (Homo sapiens, UniProt P11229); test: as §1, with “CHRM1” for “HTR6”
T5 sequence (P11229 whole entry): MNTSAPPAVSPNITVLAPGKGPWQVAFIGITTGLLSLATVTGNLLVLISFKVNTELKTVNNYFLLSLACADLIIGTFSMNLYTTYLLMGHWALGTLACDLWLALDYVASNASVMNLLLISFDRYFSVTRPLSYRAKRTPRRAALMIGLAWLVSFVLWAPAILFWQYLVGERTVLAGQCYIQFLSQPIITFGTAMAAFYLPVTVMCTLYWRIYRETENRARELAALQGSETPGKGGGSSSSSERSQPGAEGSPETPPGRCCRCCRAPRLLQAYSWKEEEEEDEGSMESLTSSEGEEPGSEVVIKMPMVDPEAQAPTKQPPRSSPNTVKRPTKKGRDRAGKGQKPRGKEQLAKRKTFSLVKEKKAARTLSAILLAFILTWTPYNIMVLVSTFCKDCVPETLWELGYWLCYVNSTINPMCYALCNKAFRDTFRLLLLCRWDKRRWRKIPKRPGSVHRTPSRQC

[12] = molecular target: T6, Muscarinic acetylcholine receptor M5 (Homo sapiens, UniProt P08912); test: as §1, with “CHRM5” for “HTR6”
T6 sequence (P08912 whole entry): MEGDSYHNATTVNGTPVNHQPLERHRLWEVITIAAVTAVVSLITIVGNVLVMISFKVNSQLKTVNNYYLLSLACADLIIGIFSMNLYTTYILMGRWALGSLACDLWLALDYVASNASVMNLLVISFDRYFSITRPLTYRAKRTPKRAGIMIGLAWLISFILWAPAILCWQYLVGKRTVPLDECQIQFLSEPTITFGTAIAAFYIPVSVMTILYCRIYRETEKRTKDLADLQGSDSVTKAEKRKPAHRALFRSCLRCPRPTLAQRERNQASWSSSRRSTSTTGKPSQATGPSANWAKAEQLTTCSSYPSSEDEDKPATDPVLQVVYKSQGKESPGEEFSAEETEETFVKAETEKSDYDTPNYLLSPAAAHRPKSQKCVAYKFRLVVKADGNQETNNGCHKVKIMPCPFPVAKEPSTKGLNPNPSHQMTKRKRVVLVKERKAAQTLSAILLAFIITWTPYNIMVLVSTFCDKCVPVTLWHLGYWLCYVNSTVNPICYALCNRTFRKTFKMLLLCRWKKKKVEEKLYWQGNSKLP

Sequence of Sigma non-opioid intracellular receptor 1 (Q99720 whole entry): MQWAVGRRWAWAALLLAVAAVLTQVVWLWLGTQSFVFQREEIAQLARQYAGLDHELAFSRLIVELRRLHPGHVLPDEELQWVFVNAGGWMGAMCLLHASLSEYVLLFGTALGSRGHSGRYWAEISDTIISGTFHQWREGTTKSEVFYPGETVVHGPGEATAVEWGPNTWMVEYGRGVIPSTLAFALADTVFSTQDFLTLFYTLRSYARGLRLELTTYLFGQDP
Sequence of Sigma intracellular receptor 2 (Q5BJF2 whole entry): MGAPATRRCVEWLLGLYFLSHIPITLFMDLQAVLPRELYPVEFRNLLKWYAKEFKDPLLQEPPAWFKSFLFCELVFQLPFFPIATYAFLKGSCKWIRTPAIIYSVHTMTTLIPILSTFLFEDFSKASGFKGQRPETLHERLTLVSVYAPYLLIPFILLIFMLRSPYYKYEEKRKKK
Sequence of Histamine H1 receptor (P35367 whole entry): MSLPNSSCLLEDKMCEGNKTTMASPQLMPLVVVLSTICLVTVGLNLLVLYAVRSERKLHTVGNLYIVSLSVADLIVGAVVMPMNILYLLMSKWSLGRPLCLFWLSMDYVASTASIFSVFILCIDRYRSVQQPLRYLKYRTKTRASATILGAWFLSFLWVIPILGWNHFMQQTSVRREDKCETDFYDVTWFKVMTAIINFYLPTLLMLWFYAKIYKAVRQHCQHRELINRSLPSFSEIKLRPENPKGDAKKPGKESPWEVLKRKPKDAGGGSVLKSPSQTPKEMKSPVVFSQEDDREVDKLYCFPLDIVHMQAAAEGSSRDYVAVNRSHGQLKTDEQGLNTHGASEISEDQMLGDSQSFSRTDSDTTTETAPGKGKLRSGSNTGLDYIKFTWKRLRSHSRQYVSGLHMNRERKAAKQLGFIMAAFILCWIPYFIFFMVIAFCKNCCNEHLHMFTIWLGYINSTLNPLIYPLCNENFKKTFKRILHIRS
Sequence of Sodium-dependent noradrenaline transporter (P23975 whole entry): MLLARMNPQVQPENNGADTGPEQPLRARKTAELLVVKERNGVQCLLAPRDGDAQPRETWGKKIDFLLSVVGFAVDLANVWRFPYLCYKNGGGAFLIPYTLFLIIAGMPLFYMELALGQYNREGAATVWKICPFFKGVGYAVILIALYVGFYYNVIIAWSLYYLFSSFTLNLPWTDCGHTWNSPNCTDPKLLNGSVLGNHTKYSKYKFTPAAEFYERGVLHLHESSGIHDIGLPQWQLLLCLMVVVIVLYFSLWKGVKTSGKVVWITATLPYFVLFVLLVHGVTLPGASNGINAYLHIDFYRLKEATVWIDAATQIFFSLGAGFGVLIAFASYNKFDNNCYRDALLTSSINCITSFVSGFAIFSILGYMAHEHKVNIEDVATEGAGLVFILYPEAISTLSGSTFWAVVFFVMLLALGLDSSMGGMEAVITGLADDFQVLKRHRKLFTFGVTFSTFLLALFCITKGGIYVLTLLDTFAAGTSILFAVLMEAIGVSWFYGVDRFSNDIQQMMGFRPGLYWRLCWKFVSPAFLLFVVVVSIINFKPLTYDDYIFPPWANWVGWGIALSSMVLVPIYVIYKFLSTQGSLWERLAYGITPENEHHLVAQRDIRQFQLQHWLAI
Sequence of Translocator protein (P30536 whole entry): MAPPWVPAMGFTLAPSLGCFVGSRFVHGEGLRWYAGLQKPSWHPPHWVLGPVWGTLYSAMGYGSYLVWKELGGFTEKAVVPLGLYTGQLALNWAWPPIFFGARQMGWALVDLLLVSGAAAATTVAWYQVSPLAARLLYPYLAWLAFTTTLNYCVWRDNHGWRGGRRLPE
Sequence of 5-hydroxytryptamine receptor 1D (P28221 whole entry): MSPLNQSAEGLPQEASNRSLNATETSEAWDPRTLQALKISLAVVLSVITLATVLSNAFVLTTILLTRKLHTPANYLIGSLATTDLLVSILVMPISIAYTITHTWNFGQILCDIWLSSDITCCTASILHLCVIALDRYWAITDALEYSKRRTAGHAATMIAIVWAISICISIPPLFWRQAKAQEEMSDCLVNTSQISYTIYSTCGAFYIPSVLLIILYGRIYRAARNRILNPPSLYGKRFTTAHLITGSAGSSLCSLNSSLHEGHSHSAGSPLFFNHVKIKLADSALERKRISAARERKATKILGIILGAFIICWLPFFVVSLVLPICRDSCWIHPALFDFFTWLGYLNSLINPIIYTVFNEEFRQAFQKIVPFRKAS
Sequence of 5-hydroxytryptamine receptor 7 (P34969 whole entry): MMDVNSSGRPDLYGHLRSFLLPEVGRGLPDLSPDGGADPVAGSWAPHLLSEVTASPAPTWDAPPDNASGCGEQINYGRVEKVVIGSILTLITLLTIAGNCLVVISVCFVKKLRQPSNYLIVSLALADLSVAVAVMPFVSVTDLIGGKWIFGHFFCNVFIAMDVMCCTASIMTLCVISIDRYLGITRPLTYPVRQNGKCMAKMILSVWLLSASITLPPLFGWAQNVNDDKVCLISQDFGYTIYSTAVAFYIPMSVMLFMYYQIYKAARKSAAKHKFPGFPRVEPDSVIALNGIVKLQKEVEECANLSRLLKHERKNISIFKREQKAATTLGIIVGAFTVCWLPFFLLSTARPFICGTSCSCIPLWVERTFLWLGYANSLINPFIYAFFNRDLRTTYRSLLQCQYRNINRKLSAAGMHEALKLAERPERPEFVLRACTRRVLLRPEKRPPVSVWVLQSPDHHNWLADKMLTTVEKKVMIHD
Sequence of 5-hydroxytryptamine receptor 6 (P50406 whole entry): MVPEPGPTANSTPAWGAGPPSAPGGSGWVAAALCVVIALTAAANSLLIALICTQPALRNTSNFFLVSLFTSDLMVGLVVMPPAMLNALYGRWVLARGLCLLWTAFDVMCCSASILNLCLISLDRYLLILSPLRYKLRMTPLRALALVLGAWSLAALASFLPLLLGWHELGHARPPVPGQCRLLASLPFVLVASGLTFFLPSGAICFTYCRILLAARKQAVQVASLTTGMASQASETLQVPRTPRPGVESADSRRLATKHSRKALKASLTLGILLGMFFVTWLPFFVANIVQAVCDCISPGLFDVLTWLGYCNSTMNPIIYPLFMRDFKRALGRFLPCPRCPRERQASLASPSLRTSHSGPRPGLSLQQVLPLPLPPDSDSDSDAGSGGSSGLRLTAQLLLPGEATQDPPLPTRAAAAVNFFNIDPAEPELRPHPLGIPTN
Sequence of 5-hydroxytryptamine receptor 5A (P47898 whole entry): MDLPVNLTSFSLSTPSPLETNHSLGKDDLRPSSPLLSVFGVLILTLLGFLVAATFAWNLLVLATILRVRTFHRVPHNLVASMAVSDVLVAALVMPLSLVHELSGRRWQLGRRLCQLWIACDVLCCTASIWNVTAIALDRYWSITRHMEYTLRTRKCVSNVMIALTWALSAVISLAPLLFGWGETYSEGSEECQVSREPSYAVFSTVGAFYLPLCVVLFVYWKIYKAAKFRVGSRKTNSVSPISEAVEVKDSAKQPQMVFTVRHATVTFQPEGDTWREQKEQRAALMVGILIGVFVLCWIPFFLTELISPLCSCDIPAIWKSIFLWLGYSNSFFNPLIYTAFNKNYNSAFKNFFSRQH
Sequence of Mu-type opioid receptor (P35372 whole entry): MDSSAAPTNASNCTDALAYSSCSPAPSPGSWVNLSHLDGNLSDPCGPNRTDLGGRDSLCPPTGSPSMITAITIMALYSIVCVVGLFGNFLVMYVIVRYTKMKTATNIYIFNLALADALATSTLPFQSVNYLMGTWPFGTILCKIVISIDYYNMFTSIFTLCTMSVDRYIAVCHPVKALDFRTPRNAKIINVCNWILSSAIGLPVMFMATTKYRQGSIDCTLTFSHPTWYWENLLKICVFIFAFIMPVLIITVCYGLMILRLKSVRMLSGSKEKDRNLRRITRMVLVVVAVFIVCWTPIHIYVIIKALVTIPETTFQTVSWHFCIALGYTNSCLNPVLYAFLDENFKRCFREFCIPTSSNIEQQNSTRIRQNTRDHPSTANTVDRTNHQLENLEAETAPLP

| Ki (Mu-type opioid receptor) [µM] | Ki [8] [nM] | Ki [9] [nM] | Ki [10] [nM] | SMILES | Ki [1] [nM] | Ki [2] [µM] | Ki [3] [nM] | Ki (D(4) dopamine receptor) [µM] | Ki [4] [nM] | Ki [5] [µM] | Ki [6] [nM] | Ki [7] [µM] | Ki (Translocator protein) [nM] | Ki (Histamine H1 receptor) [nM] | Ki [11] [nM] | Ki [12] [nM] |
| --- | --- | --- | --- | --- | --- | --- | --- | --- | --- | --- | --- | --- | --- | --- | --- | --- |
| – | – | – | – | CC(C)[C@H](CO)Nc1nc(Nc2cccc(Cl)c2)c2ncn(C(C)C)c2n1 [PURVALANOLA] | 2270 | 4.4 | 1130 | 4.87 | > 10000 | 7.54 | 3040 | 3.8 | 1520 | – | – | – |
| 7.72 | 360 | 2000 | – | CCc1nn2c(C)cc(C)nc2c1Cc1ccc(-c2nnc(C3CCNCC3)o2)cc1 | – | – | 489 | – | – | – | – | – | – | – | – | – |
| – | – | 0.904 | 1100 | Clc1ccc(CCCOCCCN2CCCCC2)cc1 [PITOLISANT HYDROCHLORIDE] | – | 1.92 | 7.01 | – | 899 | – | 1990 | – | – | 1200 | – | – |
| – | – | – | – | C[N+]1(C)[C@@H]2C[C@@H](OC(=O)C(O)(c3cccs3)c3cccs3)C[C@H]1[C@@H]1O[C@@H]12 [TIOTROPIUM BROMIDE] | – | – | 2060 | – | 0.6 | – | – | – | 4290 | – | – | 1.22 |

| SMILES | Ki (Mu-type opioid receptor) [µM] | Ki [8] [nM] | Ki [9] [nM] | Ki [10] [nM] | Ki [1] [nM] | Ki [2] [µM] | Ki [3] [nM] | Ki (D(4) dopamine receptor) [µM] | Ki [4] [nM] | Ki [5] [µM] | Ki [6] [nM] | Ki [7] [µM] | Ki (Translocator protein) [nM] | Ki (Histamine H1 receptor) [nM] | Ki [11] [nM] | Ki [12] [nM] |
| --- | --- | --- | --- | --- | --- | --- | --- | --- | --- | --- | --- | --- | --- | --- | --- | --- |
| Cc1ccc(O)c([C@H](CCN(C(C)C)C(C)C)c2ccccc2)c1 [TOLTERODINE TARTRATE] | – | – | 216 | – | – | – | 167 | – | – | – | – | – | – | 127 | 8.69 | 3.86 |
